System: 991263-137-R1-J2-PDC complex spheroid viability
Assay: Anticancer human tumor 991263-137-R1-J2-PDC patient-derived colon adenocarcinoma cell line growth inhibition [POLQ]
Conditions: for IC50: curve of first compound; for viability, T/C: stronger effect = lower value
Protocol: Multicellular complex tumor spheroid response to Polymerase (POL) inhibitors (novobiocin, ART-558, RP6685) in combination with a variety of drugs and investigational agents in selected tumor cell lines
The POL inhibitors (novobiocin, ART-558, and RP6685) were evaluated both individually and in combination with standard of care and investigational anticancer small molecules within a complex spheroid model of solid tumors. . Complex spheroids include a stromal component modeled by human endothelial cells (HUVEC) and fibroblasts modeled by human mesenchymal stem cells (MSCs). The concentration ranges selected for each drug and investigational agent were based upon clinically achievable concentrations if the clinical Cmax of the agent was known.
Compounds. The drugs and investigational agents: novobiocin (NSC847541), ART-558 (NSC835418), RP-6685 (NSC848927), peposertib (NSC802822), ceralasertib (NSC780249), elimusertib (NSC800525), camonsertib (NSC841442), AZD-1390 (NSC803789), olaparib (NSC753686), talazoparib (NSC767125), rucaparib (NSC756644), sotorasib (NSC818433), MRTX-1133 (NSC836407), SN-38 (NSC673596), topotecan (NSC609699), epotoside (NSC141540), doxorubicin (NSC123127), gemcitabine (NSC613327), 5-fluorouracil (NSC19893), paclitaxel (NSC125973), vemurafenib (NSC761431), MSA-2 (NSC828583), SN-011 (NSC837082), adavosertib (NSC754352), prexasertib (NSC758257), carboplatin (NSC241240) and oxaliplatin (NSC266046), were obtained from the National Cancer Institute (NCI) Developmental Therapeutics Program Chemical Repository (21). The FDA-approved anticancer drug set is available from the Developmental Therapeutics Program at https://dtp.cancer.gov/organization/dscb/obtaining/. […] The stock solutions were prepared in dimethyl sulfoxide (DMSO, Sigma-Aldrich, St. Louis, MO, cat. D2650), except for the platinum compounds which were prepared in saline (Quality Biological, Gaithersburg, MD, cat. 114-055-101), at 800-fold the tested concentration and stored at -70 degrees C prior to their use. All drugs and investigational agents were tested over a range starting from a high concentration at or near the clinical Cmax and decreasing in half-log increments. If the clinical Cmax for an agent had not been determined, the highest concentration tested was 10 microM, except for SN-38, which was tested at a high concentration of 1 microM.
Cell Culture. All cells were maintained in an incubator at 37 degrees C and 5% CO2 with 95% humidity. The PDC lines were cultured according to standard operating procedures established by the NCI PDMR (https://pdmr.cancer.gov). Table 3 of the manuscript, lists the cell lines along with the number of the three cell types plated to form the mct-spheroids and media for tumor cell growth. After thawing, all PDC lines, except 997537-175-T-J1-PDC and 415267-285-R-J2-PDC, were cultured in Matrigel-coated flasks prepared with a working solution of 1X Ham's F-12 nutrient mix, without supplementation (Thermo Fisher Scientific, cat. 11765054), 100 U/mL penicillin-streptomycin (Thermo Fisher Scientific, cat. 15140122), and 2.5% Matrigel (Corning Inc., Corning, NY, cat. 354248) for the first three passages. The two PDC lines 997537-175-T-J1-PDC and 415267-285-R-J2-PDC were cultured on uncoated flasks. The 857933-349-R-J2-PDC line was cultured in 6C/Colon 1B media containing advanced DMEM/F-12 (Thermo Fisher Scientific, cat. 12634028), 10 mM HEPES (Thermo Fisher Scientific, cat. 15630080), 1X GlutaMAX supplement (Thermo Fisher Scientific, cat. 35050061), 0.1 mg/mL primocin (InvivoGen, San Diego, CA, cat. ant-pm-2), 10% defined fetal bovine serum, heat inactivated (HyClone Laboratories Inc., Logan, UT, cat. SH30070.03HI), 50% L-WRN conditioned media (ATCC, cat. CRL-3276), 1.25 mM N-Acetyl-L-cysteine (Sigma-Aldrich, cat. A9165), 10 mM nicotinamide (Sigma-Aldrich, cat. N0636), 1X B-27 supplement (Thermo Fisher Scientific, cat. 17504044), 1X N-2 supplement (Thermo Fisher Scientific, cat. […]
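Also: spheroids exposed to compounds for 7 days before readout.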
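For viability, T/C in this document: 100% = DMSO vehicle control viability.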

CC(C)n1c(=O)n(C)c2cnc3cc(F)c(-c4ccc(OCCCN5CCCCC5)nc4)cc3c21 + COC1C(OC(N)=O)C(O)C(Oc2ccc3c(O)c(NC(=O)c4ccc(O)c(CC=C(C)C)c4)c(=O)oc3c2C)OC1(C)C
IC50 (second compound 0.0316 µM): > 10000 nM | IC50 (second compound 0.1 µM): > 10000 nM | IC50 (second compound 0.316 µM): > 10000 nM | IC50 (second compound 1 µM): > 10000 nM | IC50 (second compound 3.16 µM): > 10000 nM | IC50 (second compound 10 µM): > 10000 nM | viability, T/C (second compound 0.0316 µM, first compound 0.0316 µM): 107% | viability, T/C (second compound 0.0316 µM, first compound 0.1 µM): 109% | viability, T/C (second compound 0.0316 µM, first compound 0.316 µM): 118% | viability, T/C (second compound 0.0316 µM, first compound 1 µM): 101% | viability, T/C (second compound 0.0316 µM, first compound 3.16 µM): 103% | viability, T/C (second compound 0.0316 µM, first compound 10 µM): 82.7% | viability, T/C (second compound 0.1 µM, first compound 0.0316 µM): 91.5% | viability, T/C (second compound 0.1 µM, first compound 0.1 µM): 106% | viability, T/C (second compound 0.1 µM, first compound 0.316 µM): 116% | viability, T/C (second compound 0.1 µM, first compound 1 µM): 99% | viability, T/C (second compound 0.1 µM, first compound 3.16 µM): 102% | viability, T/C (second compound 0.1 µM, first compound 10 µM): 82.1% | viability, T/C (second compound 0.316 µM, first compound 0.0316 µM): 86.3% | viability, T/C (second compound 0.316 µM, first compound 0.1 µM): 114% | viability, T/C (second compound 0.316 µM, first compound 0.316 µM): 117% | viability, T/C (second compound 0.316 µM, first compound 1 µM): 96.9% | viability, T/C (second compound 0.316 µM, first compound 3.16 µM): 106% | viability, T/C (second compound 0.316 µM, first compound 10 µM): 96.2% | viability, T/C (second compound 1 µM, first compound 0.0316 µM): 109% | viability, T/C (second compound 1 µM, first compound 0.1 µM): 106% | viability, T/C (second compound 1 µM, first compound 0.316 µM): 112% | viability, T/C (second compound 1 µM, first compound 1 µM): 83.5% | viability, T/C (second compound 1 µM, first compound 3.16 µM): 109% | viability, T/C (second compound 1 µM, first compound 10 µM): 90% | viability, T/C (second compound 3.16 µM, first compound 0.0316 µM): 111% | viability, T/C (second compound 3.16 µM, first compound 0.1 µM): 116% | viability, T/C (second compound 3.16 µM, first compound 0.316 µM): 110% | viability, T/C (second compound 3.16 µM, first compound 1 µM): 108% | viability, T/C (second compound 3.16 µM, first compound 3.16 µM): 95.3% | viability, T/C (second compound 3.16 µM, first compound 10 µM): 96.1% | viability, T/C (second compound 10 µM, first compound 0.0316 µM): 95.1% | viability, T/C (second compound 10 µM, first compound 0.1 µM): 119% | viability, T/C (second compound 10 µM, first compound 0.316 µM): 117% | viability, T/C (second compound 10 µM, first compound 1 µM): 114% | viability, T/C (second compound 10 µM, first compound 3.16 µM): 107% | viability, T/C (second compound 10 µM, first compound 10 µM): 96.6%

CC(=O)O[C@H]1C(=O)[C@@]2(C)[C@H]([C@H](OC(=O)c3ccccc3)[C@]3(O)C[C@H](OC(=O)[C@H](O)[C@@H](NC(=O)c4ccccc4)c4ccccc4)C(C)=C1C3(C)C)[C@]1(OC(C)=O)CO[C@@H]1C[C@@H]2O + Cc1cccc(N(C)C(=O)C2C(O)CCN2c2nc(C)cc(C(F)(F)F)c2C#N)c1
IC50 (second compound 0.0316 µM): 1360 nM | IC50 (second compound 0.1 µM): 1830 nM | IC50 (second compound 0.316 µM): 1040 nM | IC50 (second compound 1 µM): 825 nM | IC50 (second compound 3.16 µM): 1510 nM | IC50 (second compound 10 µM): 295 nM | viability, T/C (second compound 0.0316 µM, first compound 0.00949 µM): 80.4% | viability, T/C (second compound 0.0316 µM, first compound 0.03 µM): 85.6% | viability, T/C (second compound 0.0316 µM, first compound 0.0949 µM): 85.2% | viability, T/C (second compound 0.0316 µM, first compound 0.3 µM): 67.5% | viability, T/C (second compound 0.0316 µM, first compound 0.949 µM): 53.2% | viability, T/C (second compound 0.0316 µM, first compound 3 µM): 46.1% | viability, T/C (second compound 0.1 µM, first compound 0.00949 µM): 93.4% | viability, T/C (second compound 0.1 µM, first compound 0.03 µM): 92.5% | viability, T/C (second compound 0.1 µM, first compound 0.0949 µM): 84.2% | viability, T/C (second compound 0.1 µM, first compound 0.3 µM): 74% | viability, T/C (second compound 0.1 µM, first compound 0.949 µM): 57.9% | viability, T/C (second compound 0.1 µM, first compound 3 µM): 44% | viability, T/C (second compound 0.316 µM, first compound 0.00949 µM): 85.8% | viability, T/C (second compound 0.316 µM, first compound 0.03 µM): 86.3% | viability, T/C (second compound 0.316 µM, first compound 0.0949 µM): 83.4% | viability, T/C (second compound 0.316 µM, first compound 0.3 µM): 74.1% | viability, T/C (second compound 0.316 µM, first compound 0.949 µM): 50.1% | viability, T/C (second compound 0.316 µM, first compound 3 µM): 46.1% | viability, T/C (second compound 1 µM, first compound 0.00949 µM): 82.6% | viability, T/C (second compound 1 µM, first compound 0.03 µM): 89.2% | viability, T/C (second compound 1 µM, first compound 0.0949 µM): 85% | viability, T/C (second compound 1 µM, first compound 0.3 µM): 63.2% | viability, T/C (second compound 1 µM, first compound 0.949 µM): 51.3% | viability, T/C (second compound 1 µM, first compound 3 µM): 42.8% | viability, T/C (second compound 3.16 µM, first compound 0.00949 µM): 87.3% | viability, T/C (second compound 3.16 µM, first compound 0.03 µM): 79.5% | viability, T/C (second compound 3.16 µM, first compound 0.0949 µM): 80.7% | viability, T/C (second compound 3.16 µM, first compound 0.3 µM): 63.8% | viability, T/C (second compound 3.16 µM, first compound 0.949 µM): 56% | viability, T/C (second compound 3.16 µM, first compound 3 µM): 42.1% | viability, T/C (second compound 10 µM, first compound 0.00949 µM): 79.9% | viability, T/C (second compound 10 µM, first compound 0.03 µM): 88.4% | viability, T/C (second compound 10 µM, first compound 0.0949 µM): 69.5% | viability, T/C (second compound 10 µM, first compound 0.3 µM): 51.6% | viability, T/C (second compound 10 µM, first compound 0.949 µM): 50.7% | viability, T/C (second compound 10 µM, first compound 3 µM): 46.7%

From PubChem BioAssay AID1963828 (Molecular Pharmacology Branch, DTP, NCI, 2024)
